The text below walks through data of patent US10584115B2, “Substituted pyridine and pyrazine BMI-1 inhibitors” (PTC Therapeutics, Inc., priority 2013, dated 2020).

The structures appear in SMILES notation.

Data set [1] deals with Bmi-1 protein. As to the kind of experiment: Sandwich ELISA Assay (Bmi-1 protein level in HT-1080 cells after compound treatment). The format is cell-based. The settings on record: Table 1, Bmi-1 sandwich ELISA, read-out: ELISA EC50 value for Bmi-1 protein. Summed up:
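HT-1080 cells exposed to compounds for 40–48 h at 37 °C (0.5% DMSO final), then lysed. Bmi-1 in lysates measured by sandwich ELISA (mouse monoclonal capture, rabbit anti-Bmi-1 detection, HRP anti-rabbit, TMB), read at OD450 with OD570 reference against a recombinant Bmi-1 standard curve (0–8000 pg/mL).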

In the case of `CCn1nc(C)c(-c2cncc(Nc3ccc(OC(F)F)c(F)c3)n2)c1C` [compound 382, N-[4-(difluoromethoxy)-3-fluorophenyl]-6-(1-ethyl-3,5-dimethyl-1H-pyrazol-4-yl)pyrazin-2-amine], the melting point was in the range of 129 to 130 °C. Besides, the EC50 in data set [1] fell in the range of 1 to 10 nM.
On the same counts, the results for `Cc1nn(Cc2ccccn2)c(C)c1-c1cncc(Nc2ccc(C(F)(F)F)cc2)n1` [compound 400, 6-[3,5-dimethyl-1-(pyridin-2-ylmethyl)-1H-pyrazol-4-yl]-N-[4-(trifluoromethyl)phenyl]pyrazin-2-amine] are 50 to 51 °C and 100 to 3000 nM.
Taken in the same sequence, the figures for `Cc1nn(Cc2ccccn2)c(C)c1-c1cncc(Nc2ccc(OC(F)F)cc2)n1` [compound 401, N-[4-(difluoromethoxy)phenyl]-6-[3,5-dimethyl-1-(pyridin-2-ylmethyl)-1H-pyrazol-4-yl]pyrazin-2-amine] were 47 to 48 °C and 100 to 3000 nM.
Molecule `Cc1nn(Cc2cccnc2)c(C)c1-c1cncc(Nc2ccc(C(F)(F)F)cc2)n1` [compound 402, 6-[3,5-dimethyl-1-(pyridin-3-ylmethyl)-1H-pyrazol-4-yl]-N-[4-(trifluoromethyl)phenyl]pyrazin-2-amine] displayed a melting point of 47 to 48 °C. The EC50 in data set [1] was 10 to 100 nM.
Take `Cc1nn(Cc2ccncc2)c(C)c1-c1cncc(Nc2ccc(C(F)(F)F)cc2)n1` [compound 403, 6-[3,5-dimethyl-1-(pyridin-4-ylmethyl)-1H-pyrazol-4-yl]-N-[4-(trifluoromethyl)phenyl]pyrazin-2-amine]: the melting point lay within 66 to 67 °C. Moreover, in data set [1], the EC50 fell in the range of 10 to 100 nM.
As to `Cc1nn(CC[C@H](O)CO)c(C)c1-c1cncc(Nc2ccc(C(F)(F)F)cc2)n1` [compound 404, (2S)-4-[3,5-dimethyl-4-(6-{[4-(trifluoromethyl)phenyl]amino}pyrazin-2-yl)-1H-pyrazol-1-yl]butane-1,2-diol], the melting point lay within 75 to 77 °C. Further, the EC50 in data set [1] lay in the range of 100 to 3000 nM.
Regarding `N#Cc1cc(Nc2ccc(C(F)(F)F)cc2)nc(-n2c(C3CC3)nc3ccc(F)cc32)c1` [compound 410, 2-(2-cyclopropyl-6-fluoro-1H-benzimidazol-1-yl)-6-{[4-(trifluoromethyl)phenyl]amino}pyridine-4-carbonitrile], the melting point lay in the range of 291 to 293 °C. The EC50 in data set [1] fell in the range of 10 to 100 nM.
Regarding `Cc1nc2ncc(F)cn2c1-c1cc(C#N)cc(Nc2ccc(C(F)(F)F)cc2)n1` [compound 437, 2-(6-fluoro-2-methylimidazo[1,2-a]pyrimidin-3-yl)-6-{[4-(trifluoromethyl)phenyl]amino}pyridine-4-carbonitrile], the melting point lay within 290 to 292 °C. In addition, in data set [1], the EC50 fell in the range of 1 to 10 nM.
Taken in the same sequence, the figures for `Cc1nc2ncc(F)cn2c1-c1cc(C#N)cc(Nc2ccc(OC(F)F)c(F)c2)n1` [compound 439, 2-{[4-(difluoromethoxy)-3-fluorophenyl]amino}-6-(6-fluoro-2-methylimidazo[1,2-a]pyrimidin-3-yl)pyridine-4-carbonitrile] were 268 to 270 °C and 10 to 100 nM.
Taken in the same sequence, the figures for `Cc1nc2c(F)cc(F)cn2c1-c1cc(C#N)cc(Nc2ccc(C(F)(F)F)cc2)n1` [compound 441, 2-(6,8-difluoro-2-methylimidazo[1,2-a]pyridin-3-yl)-6-{[4-(trifluoromethyl)phenyl]amino}pyridine-4-carbonitrile] were 243 to 245 °C and 1 to 10 nM.
Molecule `Cc1nc2c(F)cc(F)cn2c1-c1cc(C#N)cc(Nc2ccc(OC(F)F)cc2)n1` [compound 442, 2-{[4-(difluoromethoxy)phenyl]amino}-6-(6,8-difluoro-2-methylimidazo[1,2-a]pyridin-3-yl)pyridine-4-carbonitrile] registered a melting point of 236 to 238 °C. The EC50 in data set [1] is 1 to 10 nM.
